Format in all cases: physicochemical
Data set [1] can be described thus: Stable form screen of Compound I bis-HCl: solubility in solvents. The note with it: thermodynamic from solid. As to the method:
(§1) The stable form screen of Compound I bis-HCl was performed using 20 solvents (5-10 volumes) in an attempt to discover all crystalline forms, as summarized in Table 2. Four crystalline solvates were discovered in the slurries, which utilized alcohols such as methanol, ethanol and 1-propanol. With ethanol, the initial precipitation was Compound I bis-HCl Form III solids; after stirring for two weeks, the solids became Compound I bis-HCl Form V. The shapes of these crystals appeared as needles, shown in FIG. 47. After vacuum drying, these solvates lost solvents easily and changed to Compound I bis-HCl Form VI. […] For example, Compound I bis-HCl Form VI contains 8.8% water by KF after drying the methanol solvate and contains 5.2% water after drying the ethanol solvate. Each form was characterized by XRPD, DSC and TGA (FIGS. 4-19). TGA and DSC analysis were conducted after the samples were dried at room temperature in vacuum oven for 1 hour.

Data set [2] can be described thus: Dynamic vapor sorption (DVS).
Data set [3] in a line: Water uptake of the desolvated form in contact with air (water by KF). As to the method: as §1

Structures can show the parent of a compound that is named as a salt.

With `COC[C@H]1C[C@@H](c2ncc(-c3ccc4c(c3)COc3cc5c(ccc6nc([C@@H]7CC[C@H](C)N7C(=O)[C@@H](NC(=O)OC)C(C)C)[nH]c65)cc3-4)[nH]2)N(C(=O)[C@H](NC(=O)OC)c2ccccc2)C1` [Compound I bis-HCl, methyl {(2S)-1-[(2S,5 S)-2-(9-{2-[(2S,4S)-1-{(2R)-2-[(methoxycarbonyl)amino]-2-phenylacetyl}-4-(methoxymethyl)pyrrolidin-2-yl]-1H-imidazol-5-yl}-1,11-dihydroisochromeno[4′,3′:6,7]naphtho[1,2-d]imidazol-2-yl)-5-methylpyrrolidin-1-yl]-3-methyl-1-oxobutan-2-yl}carbamate bis-hydrochloride], the solubility in data set [1] (ethanol, organic solvent or mixture, solvent EtOH, initial Form III, final Form V) is 9000 µg/mL; in data set [1] (ethanol/water, aqueous with cosolvent or surfactant or cyclodextrin, solvent EtOH/water, Solution), > 20000 µg/mL; in data set [1] (methanol, organic solvent or mixture, solvent MeOH, final form Compound I bis-HCl Form II), 50000 µg/mL; in data set [1] (organic solvent or mixture, solvent 1-Propanol, final form Compound I bis-HCl Form IV) it was 9000 µg/mL; in data set [1] (organic solvent or mixture, solvent 2-Butanol, Solution), > 50000 µg/mL; in data set [1] (organic solvent or mixture, solvent Acetone, Mesophase), 6000 µg/mL. In addition, the solubility in data set [1] (organic solvent or mixture, solvent DCM, Solution) is > 20000 µg/mL; in data set [1] (organic solvent or mixture, solvent Ethyl acetate, Mesophase), < 1000 µg/mL; in data set [1] (organic solvent or mixture, solvent IPAc, Mesophase), < 1000 µg/mL; in data set [1] (organic solvent or mixture, solvent MIBK, Mesophase) it was < 1000 µg/mL; in data set [1] (organic solvent or mixture, solvent MTBE, Amorphous) it was < 1000 µg/mL; in data set [1] (organic solvent or mixture, solvent Toluene, Mesophase), < 1000 µg/mL. Also, the solubility in data set [1] (organic solvent or mixture, solvent heptane, Amorphous) is < 1000 µg/mL; in data set [1] (solvent Water, final form Amorphous), < 1000 µg/mL.
In the case of `COC[C@H]1C[C@@H](c2ncc(-c3ccc4c(c3)COc3cc5c(ccc6nc([C@@H]7CC[C@H](C)N7C(=O)[C@@H](NC(=O)OC)C(C)C)[nH]c65)cc3-4)[nH]2)N(C(=O)[C@H](NC(=O)OC)c2ccccc2)C1` [Compound I D-tartrate Form II, methyl {(2S)-1-[(2S,5S)-2-(9-{2-[(2S,4S)-1-{(2R)-2-[(methoxycarbonyl)amino]-2-phenylacetyl}-4-(methoxymethyl)pyrrolidin-2-yl]-1H-imidazol-5-yl}-1,11-dihydroisochromeno[4′,3′:6,7]naphtho[1,2-d]imidazol-2-yl)-5-methylpyrrolidin-1-yl]-3-methyl-1-oxobutan-2-yl}carbamate D-tartrate], the “Moisture uptake in DVS” value in data set [2] (between about 10-50% RH, FIG. 53) is recorded as “about 7%”.
On to `COC[C@H]1C[C@@H](c2ncc(-c3ccc4c(c3)COc3cc5c(ccc6nc([C@@H]7CC[C@H](C)N7C(=O)[C@@H](NC(=O)OC)C(C)C)[nH]c65)cc3-4)[nH]2)N(C(=O)[C@H](NC(=O)OC)c2ccccc2)C1` [Compound I bis-HCl Form VI, methyl {(2S)-1-[(2S,5S)-2-(9-{2-[(2S,4S)-1-{(2R)-2-[(methoxycarbonyl)amino]-2-phenylacetyl}-4-(methoxymethyl)pyrrolidin-2-yl]-1H-imidazol-5-yl}-1,11-dihydroisochromeno[4′,3′:6,7]naphtho[1,2-d]imidazol-2-yl)-5-methylpyrrolidin-1-yl]-3-methyl-1-oxobutan-2-yl}carbamate bis-hydrochloride], for which the “Water by KF” value in data set [3] (after drying the ethanol solvate) was found to be 5.2%; in data set [3] (after drying the methanol solvate) it was 8.8%. The “Water absorption in contact with air” value in data set [3] (desolvated form) is given as “absorbs water quickly”. Further, in data set [2] (FIG. 19), the “Hygroscopicity by DVS analysis” value is reported as “hygroscopic”.
